Reference: ChEMBL document CHEMBL1201862, “PubChem BioAssay data set” (2004)
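All cell lines were grown in 96-well plates and treated with compound for 48 hours. At the GI50, growth is halved.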 Activity calls are given as the source filed them. Cut-off read from the data, not from the text of the source: active = GI50 up to about 1.1 µM and inactive = higher.

Experiments:
Experiment in all cases: NCI anticancer screen, dose series, 48 h
[1] = test system: KM-20L2
[2] = test system: RXF 393
[3] = test system: SN12C
[4] = test system: MCF7
[5] = test system: U-251
[6] = test system: HL-60
[7] = test system: OVCAR-5
[8] = test system: A549
[9] = test system: IGROV-1
[10] = test system: SF-268
[11] = test system: SW-620
[12] = test system: HCT-116
[13] = test system: SF-539
[14] = test system: HOP-62
[15] = test system: SK-MEL-5
[16] = test system: K562
[17] = test system: HCT-15
[18] = test system: HCC 2998
[19] = test system: COLO 205
[20] = test system: SK-MEL-28
[21] = test system: SF-295
[22] = test system: NCI/ADR-RES
[23] = test system: DMS-273
[24] = test system: Malme-3M
[25] = test system: A498
[26] = test system: DMS-114
[27] = test system: DLD-1
[28] = test system: KM12
[29] = test system: SNB-19
[30] = test system: RPMI-8226
[31] = test system: CAKI-1
[32] = test system: NCI-H23
[33] = test system: MOLT-4
[34] = test system: M19-MEL
[35] = test system: NCI-H226
[36] = test system: HT-29
[37] = test system: EKVX
[38] = test system: OVCAR-3
[39] = test system: SNB-78
[40] = test system: SK-MEL-2
[41] = test system: UACC-62
[42] = test system: SK-OV-3
[43] = test system: HOP-18
[44] = test system: NCI-H460
[45] = test system: UO-31
[46] = test system: LOX IMVI
[47] = test system: OVCAR-8
[48] = test system: XF498
[49] = test system: CCRF-CEM
[50] = test system: HOP-92
[51] = test system: SNB-75
[52] = test system: NCI-H522
[53] = test system: UACC-257
[54] = test system: OVCAR-4
[55] = test system: TK-10
[56] = test system: ACHN
[57] = test system: M14
[58] = test system: LXFL 529
[59] = test system: 786-0

In the case of `CC[C@]12C=CCN3CC[C@@]4(c5ccc(OC)cc5N(C)[C@H]4[C@@](O)(C(=O)OC)[C@@H]1OC(C)=O)[C@@H]32`, the GI50 [1] is reported as > 101 µM (inactive), the GI50 [2] is reported as 96.8 µM (inactive) and the GI50 [3] is reported as > 183 µM (inactive). The GI50 [4] was 147 µM (inactive), the GI50 [5] was > 200 µM (inactive) and the GI50 [6] was 89.3 µM (inactive). The GI50 [7] was > 200 µM (inactive), the GI50 [8] was 162 µM (inactive) and the GI50 [9] was > 185 µM (inactive). The GI50 [10] was 138 µM (inactive), the GI50 [11] was > 200 µM (inactive) and the GI50 [12] was 172 µM (inactive). For the same compound, the GI50 [13] was > 200 µM (inactive), the GI50 [14] was 171 µM (inactive) and the GI50 [15] was 99.5 µM (inactive). For the same compound, the GI50 [16] was 131 µM (inactive), the GI50 [17] was 75.3 µM and the GI50 [18] was > 200 µM (inactive). The GI50 [19] was > 185 µM (inactive), the GI50 [20] was > 200 µM (inactive) and the GI50 [21] was 152 µM (inactive). The GI50 [22] was 156 µM (inactive), the GI50 [23] was > 140 µM (inactive) and the GI50 [24] was > 200 µM (inactive). For the same compound, the GI50 [25] was 102 µM (inactive), the GI50 [26] was 140 µM (inactive) and the GI50 [27] was > 200 µM (inactive). The GI50 [28] was > 200 µM (inactive), the GI50 [29] was > 200 µM (inactive) and the GI50 [30] was 93.8 µM (inactive). For the same compound, the GI50 [31] was 15.5 µM (inactive), the GI50 [32] was > 171 µM (inactive) and the GI50 [33] was 81.3 µM (inactive). For the same compound, the GI50 [34] was 57.5 µM (inactive), the GI50 [35] was 132 µM (inactive) and the GI50 [36] was > 200 µM (inactive). For the same compound, the GI50 [37] was > 151 µM (inactive), the GI50 [38] was 102 µM (inactive) and the GI50 [39] was 195 µM (inactive). For the same compound, the GI50 [40] was 182 µM (inactive), the GI50 [41] was 143 µM (inactive) and the GI50 [42] was > 200 µM (inactive). The GI50 [43] was > 200 µM (inactive), the GI50 [44] was 177 µM (inactive) and the GI50 [45] was 59 µM (inactive). For the same compound, the GI50 [46] was > 200 µM (inactive), the GI50 [47] was 19.5 µM (inactive) and the GI50 [48] was > 172 µM (inactive). The GI50 [49] was 132 µM (inactive), the GI50 [50] was 46.2 µM (inactive) and the GI50 [51] was 51.3 µM (inactive). For the same compound, the GI50 [52] was 97.9 µM (inactive), the GI50 [53] was 172 µM (inactive) and the GI50 [54] was 35.4 µM (inactive).

For `COc1ccc(Br)c(CCCCC(=O)O)c1`, the GI50 [1] was > 100 µM (inactive), the GI50 [2] was > 100 µM (inactive) and the GI50 [3] was > 100 µM (inactive). For the same compound, the GI50 [5] was > 100 µM (inactive), the GI50 [6] was > 100 µM (inactive) and the GI50 [8] was > 100 µM (inactive). For the same compound, the GI50 [9] was > 100 µM (inactive), the GI50 [11] was > 100 µM (inactive) and the GI50 [55] was > 100 µM (inactive). The GI50 [12] was > 100 µM (inactive), the GI50 [13] was > 100 µM (inactive) and the GI50 [14] was > 100 µM (inactive). For the same compound, the GI50 [15] was > 100 µM (inactive), the GI50 [16] was > 100 µM (inactive) and the GI50 [17] was greater than 100 µM. For the same compound, the GI50 [56] was > 100 µM (inactive), the GI50 [18] was > 100 µM (inactive) and the GI50 [19] was > 100 µM (inactive). For the same compound, the GI50 [20] was > 100 µM (inactive), the GI50 [21] was > 100 µM (inactive) and the GI50 [23] was > 100 µM (inactive). The GI50 [25] was > 100 µM (inactive), the GI50 [26] was > 100 µM (inactive) and the GI50 [27] was > 100 µM (inactive). For the same compound, the GI50 [29] was > 100 µM (inactive), the GI50 [30] was > 100 µM (inactive) and the GI50 [31] was > 100 µM (inactive). For the same compound, the GI50 [32] was > 100 µM (inactive), the GI50 [33] was > 100 µM (inactive) and the GI50 [34] was > 100 µM (inactive). For the same compound, the GI50 [36] was > 100 µM (inactive), the GI50 [37] was > 100 µM (inactive) and the GI50 [38] was > 100 µM (inactive). The GI50 [39] was > 100 µM (inactive), the GI50 [57] was > 100 µM (inactive) and the GI50 [41] was > 100 µM (inactive). The GI50 [42] was > 100 µM (inactive), the GI50 [43] was > 100 µM (inactive) and the GI50 [44] was > 100 µM (inactive). For the same compound, the GI50 [58] was > 100 µM (inactive), the GI50 [46] was > 100 µM (inactive) and the GI50 [47] was > 100 µM (inactive). The GI50 [48] was > 100 µM (inactive), the GI50 [49] was > 100 µM (inactive) and the GI50 [50] was 2.89 µM (inactive). The GI50 [51] was > 100 µM (inactive), the GI50 [59] was > 100 µM (inactive) and the GI50 [53] was > 100 µM (inactive). The GI50 [54] was > 100 µM (inactive).

With `Nc1ncnc2c1nnn2C1OC(CO)C(O)C1O` (stereo unspecified) the GI50 [1] was 4.2 µM (inactive), the GI50 [3] was 1.17 µM (inactive) and the GI50 [4] was 2.48 µM (inactive). The GI50 [5] was 7.28 µM (inactive), the GI50 [6] was 0.405 µM (active) and the GI50 [7] was 4.37 µM (inactive). For the same compound, the GI50 [8] was 3.65 µM (inactive), the GI50 [9] was 1.19 µM (inactive) and the GI50 [10] was 6.3 µM (inactive). The GI50 [11] was 2.19 µM (inactive), the GI50 [12] was 1.9 µM (inactive) and the GI50 [13] was 9.14 µM (inactive). The GI50 [14] was 6.05 µM (inactive), the GI50 [15] was 4 µM (inactive) and the GI50 [16] was 1.61 µM (inactive). For the same compound, the GI50 [17] was 2.54 µM, the GI50 [18] was 1.83 µM (inactive) and the GI50 [19] was 3.05 µM (inactive). For the same compound, the GI50 [20] was 12.4 µM (inactive), the GI50 [21] was 30.1 µM (inactive) and the GI50 [22] was 8.97 µM (inactive). The GI50 [23] was 2.62 µM (inactive), the GI50 [24] was 3.58 µM (inactive) and the GI50 [25] was 3.94 µM (inactive). The GI50 [26] was 3.64 µM (inactive), the GI50 [27] was 1.36 µM (inactive) and the GI50 [28] was 4.21 µM (inactive). The GI50 [29] was 5.66 µM (inactive), the GI50 [30] was 1.88 µM (inactive) and the GI50 [31] was 4.5 µM (inactive). For the same compound, the GI50 [32] was 7.82 µM (inactive), the GI50 [33] was 5.41 µM (inactive) and the GI50 [34] was 8.57 µM (inactive). For the same compound, the GI50 [35] was 3.71 µM (inactive), the GI50 [36] was 6.78 µM (inactive) and the GI50 [37] was 7.66 µM (inactive). For the same compound, the GI50 [38] was 5.5 µM (inactive), the GI50 [39] was 37.6 µM (inactive) and the GI50 [40] was 1.3 µM (inactive). For the same compound, the GI50 [41] was 5.7 µM (inactive), the GI50 [42] was 0.822 µM (active) and the GI50 [43] was 2.69 µM (inactive). For the same compound, the GI50 [44] was 2.13 µM (inactive), the GI50 [45] was 2.07 µM (inactive) and the GI50 [46] was 1.8 µM (inactive). The GI50 [47] was 2.87 µM (inactive), the GI50 [48] was 6.98 µM (inactive) and the GI50 [49] was 3.23 µM (inactive). The GI50 [50] was 7.14 µM (inactive), the GI50 [51] was 9.02 µM (inactive) and the GI50 [52] was 1.87 µM (inactive). For the same compound, the GI50 [53] was 8.93 µM (inactive) and the GI50 [54] was 8.85 µM (inactive).
